Data taken from ChEMBL document CHEMBL4257529, “Antifungal amphiphilic kanamycins: new life for an old drug” (Medchemcomm, 2018).
Values after ≈ are worked out from the molar mass of the structure shown.

Legend:
Assay type in all cases: functional
[1] = test system: Aspergillus flavus; assay: Antifungal activity against Aspergillus flavus after 12 to 18 hrs
[2] = test system: Escherichia coli; assay: Antibacterial activity against Escherichia coli ATCC 25922 after 12 to 18 hrs
[3] = test system: Fusarium graminearum; assay: Antifungal activity against Fusarium graminearum after 12 to 18 hrs
[4] = test system: Staphylococcus aureus; assay: Antibacterial activity against Staphylococcus aureus ATCC 25923 after 12 to 18 hrs
[5] = test system: Candida albicans; assay: Antifungal activity against resistant Candida albicans ATCC 64124
[6] = test system: Cryptococcus neoformans; assay: Antifungal activity against Cryptococcus neoformans 94-2586
[7] = test system: Kluyveromyces marxianus; assay: Antifungal activity against Candida pseudotropicalis YOGI
[8] = test system: Fusarium oxysporum; assay: Antifungal activity against Fusarium oxysporum
[9] = test system: Diutina rugosa; assay: Antifungal activity against Candida rugosa 95-967
[10] = test system: Aspergillus flavus; assay: Antifungal activity against Aspergillus flavus
[11] = test system: Cryptococcus neoformans; assay: Antifungal activity against Cryptococcus neoformans H99; conditions: var grubii H99
[12] = test system: Escherichia coli; assay: Antibacterial activity against Escherichia coli TG1
[13] = test system: Cryptococcus neoformans; assay: Antifungal activity against Cryptococcus neoformans 90-26
[14] = test system: Aspergillus niger; assay: Antifungal activity against Aspergillus niger
[15] = test system: Candida parapsilosis; assay: Antifungal activity against sensitive Candida parapsilosis; conditions: Lodderomyces parapsilosis
[16] = test system: Candida albicans; assay: Antifungal activity against Candida albicans ATCC 10231
[17] = test system: Candida albicans; assay: Antifungal activity against Candida albicans 94-2181
[18] = test system: Candida albicans; assay: Antifungal activity against sensitive Candida albicans MYA-2876
[19] = test system: Clavispora lusitaniae; assay: Antifungal activity against Candida lusitaniae 95-767
[20] = test system: Fusarium graminearum; assay: Antifungal activity against Fusarium graminearum B-4-5A
[21] = test system: Candida tropicalis; assay: Antifungal activity against Candida tropicalis 95-41
[22] = test system: Micrococcus luteus; assay: Antibacterial activity against Micrococcus luteus ATCC 10240
[23] = test system: Candida albicans; assay: Antifungal activity against Candida albicans B-311
[24] = test system: Staphylococcus aureus; assay: Antibacterial activity against Staphylococcus aureus ATCC 25923
[25] = test system: Fusarium graminearum; assay: Antifungal activity against Fusarium graminearum infected in wheat plant assessed as contamination of wheat heads and kernels with deoxynivalenol at 5.5 ml/L (reference value: 1.2 ppm)
[26] = test system: Fusarium graminearum; assay: Antifungal activity against Fusarium graminearum infected in wheat plant assessed as contamination of wheat heads and kernels with deoxynivalenol at 2.8 ml/L (reference value: 1.2 ppm)
[27] = test system: Fusarium graminearum; assay: Antifungal activity against Fusarium graminearum infected in wheat plant assessed as contamination of wheat heads and kernels with deoxynivalenol at 4 ml/L (reference value: 1.2 ppm)
[28] = test system: Fusarium graminearum; assay: Antifungal activity against Fusarium graminearum infected in wheat plant assessed as contamination of wheat heads and kernels with deoxynivalenol at 8 ml/L (reference value: 1.2 ppm)
[29] = test system: Fusarium graminearum; assay: Antifungal activity against Fusarium graminearum by microbroth dilution assay

Compound: CCCCCCCOC[C@H]1O[C@H](O[C@@H]2[C@@H](O)[C@H](O[C@H]3O[C@H](CN)[C@@H](O)[C@H](O)[C@H]3O)[C@@H](N)C[C@H]2N)[C@H](O)[C@@H](N)[C@@H]1OCCCCCCC
- MIC [1]: 500 µg/mL (≈ 734 µM)
- MIC [2]: 125 µg/mL (≈ 184 µM)
- MIC [3]: 15.6 µg/mL (≈ 22.9 µM)
- MIC [4]: 125 µg/mL (≈ 184 µM)

Compound: NC[C@H]1O[C@H](O[C@H]2[C@H](O)[C@@H](O[C@H]3O[C@H](CO)[C@@H](O)[C@H](N)[C@H]3O)[C@H](N)C[C@@H]2N)[C@H](O)[C@@H](O)[C@@H]1O [KANAMYCIN]
- MIC [5]: > 500 µg/mL
- MIC [6]: > 125 µg/mL
- MIC [7]: > 250 µg/mL
- MIC [8]: > 250 µg/mL
- MIC [9]: > 250 µg/mL
- MIC [10]: > 250 µg/mL
- MIC [11]: > 125 µg/mL
- MIC [12]: 1.95 µg/mL (≈ 4.02 µM)
- MIC [13]: > 250 µg/mL
- MIC [14]: > 250 µg/mL
- MIC [15]: > 250 µg/mL
- MIC [16]: > 250 µg/mL
- MIC [17]: > 250 µg/mL
- MIC [18]: > 250 µg/mL
- MIC [19]: > 250 µg/mL
- MIC [20]: > 125 µg/mL
- MIC [21]: > 250 µg/mL
- MIC [22]: 1.95 µg/mL (≈ 4.02 µM)
- MIC [23]: > 250 µg/mL
- MIC [24]: < 0.98 µg/mL

Compound: CCCCCCOC[C@H]1O[C@H](O[C@@H]2[C@@H](O)[C@H](O[C@H]3O[C@H](CN)[C@@H](O)[C@H](O)[C@H]3O)[C@@H](N)C[C@H]2N)[C@H](O)[C@@H](N)[C@@H]1OCCCCCC
- MIC [1]: 500 µg/mL (≈ 766 µM)
- MIC [2]: ≥ 250 µg/mL
- MIC [3]: 15.6 µg/mL (≈ 23.9 µM)
- MIC [4]: 64 µg/mL (≈ 98 µM)

Compound: OC(Cc1ccccc1Cl)(Cn1nc[nH]c1=S)C1(Cl)CC1 (centres undefined) [PROTHIOCONAZOLE]
- Activity [25]: 0.7 ppm
- Activity [26]: 1.1 ppm

Compound: COC(=O)N(OC)c1ccccc1COc1ccn(-c2ccc(Cl)cc2)n1 [PYRACLOSTROBIN]
- Activity [27]: 1.3 ppm
- Activity [28]: 1.2 ppm

Compound: CCCCCCCCO[C@@H]1[C@@H](N)[C@@H](O[C@H]2[C@H](O)[C@@H](O[C@H]3O[C@H](CO)[C@@H](O)[C@H](O)[C@H]3O)[C@H](N)C[C@@H]2N)O[C@H](CN)[C@H]1O
- MIC [29]: > 500 µg/mL

Compound: CCCCCCCCOC[C@@H]1O[C@@H](O[C@@H]2[C@@H](O)[C@H](O[C@@H]3O[C@@H](CN)[C@H](O)[C@@H](O)[C@@H]3N)[C@@H](N)C[C@H]2N)[C@@H](O)[C@H](O)[C@H]1O (stereo in doubt)
- MIC [29]: 31.3 µg/mL (≈ 52.5 µM)

Compound: CCCCCCCCO[C@@H]1[C@@H](O)[C@@H](O[C@@H]2[C@@H](O)[C@H](O[C@H]3O[C@H](CN)[C@@H](O)[C@H](O)[C@H]3N)[C@@H](N)C[C@H]2N)O[C@H](CO)[C@H]1O
- MIC [29]: 62.5 µg/mL (≈ 105 µM)

Compound: CCCCOC[C@H]1O[C@H](O[C@@H]2[C@@H](O)[C@H](O[C@H]3O[C@H](CN)[C@@H](O)[C@H](O)[C@H]3O)[C@@H](N)C[C@H]2N)[C@H](O)[C@@H](N)[C@@H]1OCCCC
- MIC [1]: > 500 µg/mL
- MIC [2]: ≥ 250 µg/mL
- MIC [3]: 125 µg/mL (≈ 209 µM)
- MIC [4]: ≥ 250 µg/mL

Compound: CCCCCCCO[C@H]1[C@H](N)[C@@H](O)[C@@H](O[C@@H]2[C@@H](O)[C@H](O[C@H]3O[C@H](CN)[C@@H](O)[C@H](O)[C@H]3O)[C@@H](N)C[C@H]2N)O[C@@H]1CO
- MIC [1]: > 500 µg/mL
- MIC [2]: ≥ 250 µg/mL
- MIC [3]: 125 µg/mL (≈ 215 µM)
- MIC [4]: 125 µg/mL (≈ 215 µM)

Compound: CCCCCCCCO[C@H]1[C@@H](O[C@@H]2[C@@H](O)[C@H](O[C@H]3O[C@H](CN)[C@@H](O)[C@H](O)[C@H]3N)[C@@H](N)C[C@H]2N)O[C@H](CO)[C@@H](O)[C@@H]1O
- MIC [29]: 20 µg/mL (≈ 33.5 µM)
